# Reference: US20180203025A1, “HDL THERAPY MARKERS” (Cerenis Therapeutics Holding SA, priority 2014, published 2018)
# What was measured:
# [1] = tested on: ligatured carotid from apoE−/− mice; experiment: Cholesterol content of ligatured left carotids, apoE−/− mice on high fat diet; type: in vivo, mouse; settings: 8 injections
# Description: The formulation was injected in the retro-orbital vein (50 μL/mouse) of mice anaesthetized with isoflurane, once every 2 days for 8 injections. The dose administered was based on the mean of mice bodyweight in each cage. The compounds were injected at 10 AM every day. For blood sampling, mice fasted overnight were sampled once at the indicated dose: (1) at predose (at 9 AM) by retro-orbital withdrawal: 24 hours before the first injection/day of surgery; (2) at postdose (at 9 AM) by retro-orbital withdrawal: 24 hours after the last injection; and (3) at t=0 (9 AM) and the indicated time points after the 5th injection by caudal withdrawal. Immediately after collection, blood samples were kept at ca. +4° C. to avoid alteration of the blood sample. Blood specimens were centrifuged (800×g for 10 minutes at +4° C.) and plasma was saved for future analysis.
# This study examined the effect of CER-001 administration on plaque progression in ligatured carotid from apoE^−/− mice fed with a high fat diet. For each group of mice, the cholesterol content of the carotid was tested after lipid extraction and HPLC analysis. The ligatured carotids were collected the day of sacrifice and stored at −80° C. The lipids were extracted with an organic solution and the cholesterol concentration was determined by HPLC.
# Ligatured carotids were lipid extracted according to the method of Section 9.2.9. The surgical straps were removed from the carotid (fresh weight) and the tissue was introduced in a glass tube. To this was added 1.8 mL of CHCl3/MeOH (2:1) and mixed overnight at 4° C. The carotid was then removed, dried and weighed and the organic solution (CHCl3/MeOH) was split in two glass tubes in equal volumes. For unesterified cholesterol (UC), 100 μL of β-sitosterol (internal standard) was added and the solution was dried. To this was added 200 μL EtOH for solubilisation of the sample and the sample was analyzed UC by HPLC. […] To this was added 200 μL EtOH for solubilisation of the sample and analysed TC by HPLC. The cholesterol concentration was determined by HPLC according to the method of Section 9.2.7. […]
# [2] = Cholesterol content in mouse feces; type: in vivo
# Description: The left and right carotids, the liver, the spleen and the aortas connected to the heart were removed and stored at −80° C. The liver was collected in four different aliquots. The remaining biological specimens were discarded after the organ collection. For feces collection, the day of the last injection for each group, the cage was changed with a new litter and feces were collected for 24 hours (day of sacrifice).
# Feces were lipid extracted and analyzed by HPLC for their cholesterol content. Feces (200 mg) were solubilized in methanol:water (50:50) solution and mixed for 1 minute with Turrax®. The solution was frozen and lyophilized overnight. The following day, 4 mL of chloroform/methanol (2:1) was added and the solution was mixed for 24 hours at 4° C. To this was added water (1.33 mL), and the solution was then mixed and centrifuged for three minutes at 3700×g. The organic phase was saved and dried. The pellet was solubilized in absolute ethanol (2 mL), and filtered on cartridge AC 0.2 μm. The cholesterol concentration in the sample was analyzed according to the method of Section 9.2.7.
# [3] = tested on: ABCA1 mRNA in HepG2 (human hepatocytes); experiment: ABCA1 mRNA in HepG2 hepatocytes; type: cell-based; settings: Study K, 0.25, 25 and 250 μg/mL, 6 hours
# Description: HepG2 (human hepatocytes) and Hepa1-6 (mouse hepatocytes) were seeded on 6 well plates (300,000 cells/well) in DMEM 10% FCS. […] Gene expression was assayed using the protocols described in Sections 8.3.2 (RNA extraction); 8.3.4 (reverse transcription), and 8.3.5 (qPCR). ABCA1 (Taqman probe Hs01059118.m1 and Mm00442646.m1 for respectively HepG2 and Hepa1-6) and SR-BI (Taqman probe Hs00969821.m1 and Mm00450234.m1 for respectively HepG2 and Hepa1-6) expression was determined according to the manufacturer's protocol. The reference gene used is HPRT1 (Taqman probe: Mm00446968.m1) for Hepa1-6 and GAPDH (Taqman probe: Hs03929097.g1) for HepG2 cells.
# [4] = tested on: carotid artery and aorta vessel wall; experiment: SAMBA trial: mean vessel wall thickness by 3Tesla MRI; type: in vivo, human
# Description: The patients were initially treated in an intense “induction phase,” receiving 9 doses of CER-001 at a dose of 8 mg/kg over 4 weeks. After this induction phase, the study subjects were re-evaluated with lipoprotein profiles and an MRI scan. Subsequently, the study subjects continued to be treated once every two weeks in a “maintenance phase” for 6 months' total therapy. At that point the lipoprotein profiles and MRI scans were repeated.
# FIG. 70 and FIG. 71 show the mean carotic and aortic vessel wall thickness, respectively, on a patient-by-patient basis after one month of treatment. Mean vessel wall thickness of the carotid artery decreased by a mean of −6.4% after one month of induction therapy, and mean vessel wall thickness of the aorta decreased by a mean of −4.6% after one month of induction therapy. The homozygous ApoA-I deficiency patient experienced a −17% regression of carotid mean vessel wall thickness. […] Mean vessel wall thickness was determined by 3Tesla MRI.
# [5] = Plasma human ApoA-I by ELISA in apoE−/− mice; type: in vivo, mouse
# Description: This study examined the kinetics of the CER-001 infusion by determining the concentration of human ApoA-I in the plasma after infusion of CER-001. The ApoA-I concentration in plasma was determined by ELISA (Assay Pro EA5201-1) following manufacturer instructions.
# [6] = mean of subjects, one month of induction therapy, 8 mg/kg
substance,measurement,setting,value
"CER-001: engineered recombinant human apolipoprotein A-I HDL with sphingomyelin and DPPG; protein-to-phospholipid ratio 1:2.7, 97% Sph and 3% DPPG",decrease in total cholesterol contents in ligatured carotids,"[1]; 2, 5 and 10 mg/kg",50%
same,decrease in unesterified cholesterol in ligatured carotids,"[1]; 2, 5 and 10 mg/kg",25%
same,inhibition of plaque progression,[1]; 20 and 50 mg/kg,around 10%
same,feces cholesterol content,[2]; feces collected 24 hours after last injection,dose-dependent increase
same,concentration of maximum cholesterol excretion,"[2]; mouse, in vivo",10 mg/kg
same,ABCA1 mRNA level,[3],No significant decrease
same,benefit on vessel wall thickness,[4]; after an additional 5 months of maintenance therapy,persistent and cumulative benefit
same,regression of carotid mean vessel wall thickness,[4]; homozygous ApoA-I deficiency patient,−17%
same,change of mean vessel wall thickness of the aorta,[4]; [6],−4.6%
same,change of mean vessel wall thickness of the carotid artery,[4]; [6],−6.4%
same,human ApoA-I plasma concentration,[5]; 2-50 mg/kg,dose-dependent increase
same,human plasma ApoA-I relative to expected doses,"[5]; mouse, in vivo",expected doses of ApoA-I in plasma were retrieved
